Measurements as given in patent US11542240B2, “STK19 inhibitors for treatment of cancer” (TRUSTEES OF BOSTON UNIVERSITY, priority 2018, dated 2023).
“And” between values parts separate entries of the source, which are not always exact repeats. Equal entries are not always repeated. Where two headings read alike, the source gives them in different places.

Columns and labels:
Experiment in all cases: biochemical
Assay type in all cases: binding
[1] = target: panel of 468 diverse kinases (Homo sapiens, UniProt P31749); details: AKT1; 1000 nM; read-out: Percent Control
[2] = target: panel of 468 diverse kinases (Homo sapiens, UniProt Q15303); details: ERBB4; 1000 nM; read-out: Percent Control
Sequence of panel of 468 diverse kinases (Homo sapiens, UniProt Q15303) (Q15303 26-1308 limits assumed): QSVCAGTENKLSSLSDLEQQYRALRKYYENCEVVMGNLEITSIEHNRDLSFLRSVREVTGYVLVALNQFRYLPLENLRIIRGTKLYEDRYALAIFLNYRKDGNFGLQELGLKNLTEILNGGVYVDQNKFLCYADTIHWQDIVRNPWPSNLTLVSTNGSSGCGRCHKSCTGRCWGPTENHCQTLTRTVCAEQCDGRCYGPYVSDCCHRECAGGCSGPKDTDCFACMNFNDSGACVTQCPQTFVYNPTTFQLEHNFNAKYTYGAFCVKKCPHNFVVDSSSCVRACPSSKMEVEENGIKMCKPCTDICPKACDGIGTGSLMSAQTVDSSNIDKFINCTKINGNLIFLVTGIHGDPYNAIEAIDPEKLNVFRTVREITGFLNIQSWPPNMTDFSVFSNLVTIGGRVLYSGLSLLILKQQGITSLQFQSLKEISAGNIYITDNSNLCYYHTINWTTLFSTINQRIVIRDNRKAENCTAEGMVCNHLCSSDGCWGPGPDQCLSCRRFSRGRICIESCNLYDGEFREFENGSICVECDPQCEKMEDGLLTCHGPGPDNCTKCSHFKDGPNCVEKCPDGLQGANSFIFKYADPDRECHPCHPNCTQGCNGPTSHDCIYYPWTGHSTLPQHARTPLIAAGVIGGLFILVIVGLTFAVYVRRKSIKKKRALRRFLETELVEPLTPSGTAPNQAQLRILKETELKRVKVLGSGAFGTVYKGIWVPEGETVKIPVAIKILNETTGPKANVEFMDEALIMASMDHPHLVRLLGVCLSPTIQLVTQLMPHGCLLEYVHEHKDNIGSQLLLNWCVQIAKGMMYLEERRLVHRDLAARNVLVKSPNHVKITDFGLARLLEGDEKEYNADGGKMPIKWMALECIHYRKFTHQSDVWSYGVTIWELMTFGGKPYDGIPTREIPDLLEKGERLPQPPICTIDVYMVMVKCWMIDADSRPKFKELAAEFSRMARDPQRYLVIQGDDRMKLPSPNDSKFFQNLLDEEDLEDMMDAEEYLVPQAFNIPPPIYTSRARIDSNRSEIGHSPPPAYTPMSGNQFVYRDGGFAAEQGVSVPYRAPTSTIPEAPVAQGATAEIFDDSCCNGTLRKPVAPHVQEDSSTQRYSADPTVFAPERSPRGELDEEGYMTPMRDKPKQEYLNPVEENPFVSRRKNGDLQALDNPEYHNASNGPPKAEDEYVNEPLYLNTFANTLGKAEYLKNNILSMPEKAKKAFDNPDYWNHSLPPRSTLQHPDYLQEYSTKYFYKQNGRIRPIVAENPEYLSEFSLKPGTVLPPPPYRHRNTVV

[3] = target: panel of 468 diverse kinases (Homo sapiens, UniProt Q9HC98); details: NEK6; 1000 nM; read-out: Percent Control
[4] = target: panel of 468 diverse kinases (Homo sapiens, UniProt Q8TBX8); details: PIP5K2C; 1000 nM; read-out: Percent Control
Sequence of panel of 468 diverse kinases (Homo sapiens, UniProt Q8TBX8) (Q8TBX8 2-421 limits assumed): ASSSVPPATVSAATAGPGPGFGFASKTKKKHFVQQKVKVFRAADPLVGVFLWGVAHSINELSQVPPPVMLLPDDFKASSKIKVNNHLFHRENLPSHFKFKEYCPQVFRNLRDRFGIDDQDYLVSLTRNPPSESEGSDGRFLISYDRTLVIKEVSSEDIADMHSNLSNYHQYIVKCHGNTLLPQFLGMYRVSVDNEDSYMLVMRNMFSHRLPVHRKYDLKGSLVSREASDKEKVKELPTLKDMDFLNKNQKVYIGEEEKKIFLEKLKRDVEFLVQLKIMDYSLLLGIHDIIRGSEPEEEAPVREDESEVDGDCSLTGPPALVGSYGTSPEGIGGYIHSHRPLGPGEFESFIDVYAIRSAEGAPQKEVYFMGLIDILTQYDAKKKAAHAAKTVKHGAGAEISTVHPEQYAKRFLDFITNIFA

[5] = target: panel of 468 diverse kinases (Homo sapiens, UniProt Q15835); details: GRK1; 1000 nM; read-out: Percent Control
[6] = target: panel of 468 diverse kinases (Homo sapiens, UniProt Q9P289); details: MST4; 1000 nM; read-out: Percent Control
Sequence of panel of 468 diverse kinases (Homo sapiens, UniProt Q9P289) (Q9P289 2-416 limits assumed): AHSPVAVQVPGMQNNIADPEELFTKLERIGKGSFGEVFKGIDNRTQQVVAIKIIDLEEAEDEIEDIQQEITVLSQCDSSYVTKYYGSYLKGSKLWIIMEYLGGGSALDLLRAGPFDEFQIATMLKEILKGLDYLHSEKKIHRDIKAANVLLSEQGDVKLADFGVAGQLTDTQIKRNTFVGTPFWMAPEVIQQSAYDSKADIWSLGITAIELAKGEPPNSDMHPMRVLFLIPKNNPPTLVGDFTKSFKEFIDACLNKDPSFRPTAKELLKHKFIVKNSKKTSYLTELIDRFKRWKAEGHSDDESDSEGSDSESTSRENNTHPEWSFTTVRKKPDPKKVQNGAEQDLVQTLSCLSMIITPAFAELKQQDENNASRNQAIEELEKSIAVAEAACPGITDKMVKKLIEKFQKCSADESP

[7] = target: panel of 468 diverse kinases (Homo sapiens, UniProt P42336, Q546K); details: PIK3CA(Q546K); 1000 nM; read-out: Percent Control
[8] = target: panel of 468 diverse kinases (Homo sapiens, UniProt P35590); details: TIE1; 1000 nM; read-out: Percent Control
Sequence of panel of 468 diverse kinases (Homo sapiens, UniProt P35590) (P35590 22-1138 limits assumed): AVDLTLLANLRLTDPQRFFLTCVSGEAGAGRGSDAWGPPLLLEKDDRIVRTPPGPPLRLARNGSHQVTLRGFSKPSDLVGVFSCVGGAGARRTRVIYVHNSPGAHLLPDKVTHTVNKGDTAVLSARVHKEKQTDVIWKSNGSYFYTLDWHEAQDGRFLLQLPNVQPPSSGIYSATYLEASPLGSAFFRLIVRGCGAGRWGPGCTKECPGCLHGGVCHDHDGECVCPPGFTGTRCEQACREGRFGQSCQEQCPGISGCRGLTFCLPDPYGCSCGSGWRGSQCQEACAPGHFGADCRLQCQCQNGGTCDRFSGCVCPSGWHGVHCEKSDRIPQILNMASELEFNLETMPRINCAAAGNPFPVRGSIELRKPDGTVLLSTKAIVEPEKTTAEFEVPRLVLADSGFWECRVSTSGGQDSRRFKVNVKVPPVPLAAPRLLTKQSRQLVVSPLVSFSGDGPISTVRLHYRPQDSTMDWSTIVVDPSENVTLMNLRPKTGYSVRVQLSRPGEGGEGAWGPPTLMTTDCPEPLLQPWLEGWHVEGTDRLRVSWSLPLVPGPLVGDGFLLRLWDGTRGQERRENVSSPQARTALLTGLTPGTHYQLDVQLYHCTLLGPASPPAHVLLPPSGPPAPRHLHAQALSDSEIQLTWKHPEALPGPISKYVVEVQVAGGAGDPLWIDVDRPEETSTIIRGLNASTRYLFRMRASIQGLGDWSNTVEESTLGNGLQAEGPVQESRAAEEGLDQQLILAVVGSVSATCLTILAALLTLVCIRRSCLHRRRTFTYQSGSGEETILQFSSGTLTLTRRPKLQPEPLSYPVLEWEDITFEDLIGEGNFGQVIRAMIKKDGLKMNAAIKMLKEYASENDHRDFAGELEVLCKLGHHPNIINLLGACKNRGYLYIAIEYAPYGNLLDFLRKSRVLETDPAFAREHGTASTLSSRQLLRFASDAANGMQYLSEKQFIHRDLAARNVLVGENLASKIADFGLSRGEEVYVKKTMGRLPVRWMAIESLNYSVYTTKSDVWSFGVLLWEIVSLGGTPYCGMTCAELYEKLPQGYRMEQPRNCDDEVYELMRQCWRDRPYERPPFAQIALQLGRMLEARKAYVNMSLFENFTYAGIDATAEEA

[9] = target: panel of 468 diverse kinases (Homo sapiens, UniProt P23443); details: S6K1; 1000 nM; read-out: Percent Control
[10] = target: panel of 468 diverse kinases (Homo sapiens, UniProt Q9H0K1); details: SIK2; 1000 nM; read-out: Percent Control
[11] = target: panel of 468 diverse kinases (Homo sapiens, UniProt Q32MK0); details: MLCK; 1000 nM; read-out: Percent Control
[12] = target: panel of 468 diverse kinases (Homo sapiens, UniProt Q59H18); details: TNNI3K; 1000 nM; read-out: Percent Control
[13] = target: panel of 468 diverse kinases (Homo sapiens, UniProt Q9UEE5); details: DRAK1; 1000 nM; read-out: Percent Control
[14] = target: panel of 468 diverse kinases (Homo sapiens, UniProt Q86YV6); details: MYLK4; 1000 nM; read-out: Percent Control
[15] = target: panel of 468 diverse kinases (Homo sapiens, UniProt P42680); details: TEC; 1000 nM; read-out: Percent Control
[16] = target: panel of 468 diverse kinases (Homo sapiens, UniProt Q13523); details: PRP4; 1000 nM; read-out: Percent Control
Sequence of panel of 468 diverse kinases (Homo sapiens, UniProt Q13523) (Q13523 2-1007 limits assumed): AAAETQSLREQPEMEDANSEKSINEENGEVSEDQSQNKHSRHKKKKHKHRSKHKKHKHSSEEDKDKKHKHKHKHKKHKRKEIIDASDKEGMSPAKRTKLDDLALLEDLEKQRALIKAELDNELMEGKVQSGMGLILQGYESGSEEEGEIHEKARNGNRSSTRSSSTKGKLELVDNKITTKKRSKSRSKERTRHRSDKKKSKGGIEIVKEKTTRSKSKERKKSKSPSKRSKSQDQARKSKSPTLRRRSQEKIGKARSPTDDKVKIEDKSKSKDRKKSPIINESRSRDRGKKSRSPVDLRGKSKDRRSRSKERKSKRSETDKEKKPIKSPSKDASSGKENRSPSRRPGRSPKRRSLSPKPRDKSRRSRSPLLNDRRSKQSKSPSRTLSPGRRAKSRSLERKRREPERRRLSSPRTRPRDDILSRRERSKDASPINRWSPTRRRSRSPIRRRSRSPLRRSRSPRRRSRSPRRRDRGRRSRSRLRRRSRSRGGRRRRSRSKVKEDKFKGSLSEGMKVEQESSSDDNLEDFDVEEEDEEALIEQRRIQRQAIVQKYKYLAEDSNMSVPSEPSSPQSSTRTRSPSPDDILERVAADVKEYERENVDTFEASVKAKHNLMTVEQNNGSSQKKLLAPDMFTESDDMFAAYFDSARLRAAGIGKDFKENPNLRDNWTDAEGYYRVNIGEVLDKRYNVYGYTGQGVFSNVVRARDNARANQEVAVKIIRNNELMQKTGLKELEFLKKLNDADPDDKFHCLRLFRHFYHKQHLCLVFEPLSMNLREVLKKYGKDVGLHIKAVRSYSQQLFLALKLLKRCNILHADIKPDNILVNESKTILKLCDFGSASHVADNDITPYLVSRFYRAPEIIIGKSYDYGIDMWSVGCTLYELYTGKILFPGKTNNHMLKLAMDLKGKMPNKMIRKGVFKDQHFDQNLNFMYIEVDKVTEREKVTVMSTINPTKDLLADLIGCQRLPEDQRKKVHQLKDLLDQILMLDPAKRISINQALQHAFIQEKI

[17] = target: panel of 468 diverse kinases (Homo sapiens, UniProt O95835); details: LATS1; 1000 nM; read-out: Percent Control
[18] = target: panel of 468 diverse kinases (Homo sapiens, UniProt P36888, D835Y); details: FLT3(D835Y); 1000 nM; read-out: Percent Control
[19] = target: panel of 468 diverse kinases (Homo sapiens, UniProt Q96D53); details: ADCK4; 1000 nM; read-out: Percent Control
[20] = target: panel of 468 diverse kinases (Homo sapiens, UniProt Q00535); details: CDK5; 1000 nM; read-out: Percent Control
[21] = tested on: panel of 468 diverse kinases
[22] = target: panel of 468 diverse kinases (Homo sapiens, UniProt Q8NEV4); details: MYO3A; 1000 nM; read-out: Percent Control
[23] = target: panel of 468 diverse kinases (Homo sapiens, UniProt Q86Z02); details: HIPK1; 1000 nM; read-out: Percent Control
[24] = target: panel of 468 diverse kinases (Homo sapiens, UniProt Q6PHR2); details: ULK3; 1000 nM; read-out: Percent Control
[25] = target: panel of 468 diverse kinases (Homo sapiens, UniProt O75676); details: 1000 nM, read-out: Percent Control
[26] = target: panel of 468 diverse kinases (Homo sapiens, UniProt Q16566); details: CAMK4; 1000 nM; read-out: Percent Control
[27] = target: panel of 468 diverse kinases (Homo sapiens, UniProt Q9H4A3); details: WNK1; 1000 nM; read-out: Percent Control
[28] = target: panel of 468 diverse kinases (Homo sapiens, UniProt Q13546); details: RIPK1; 1000 nM; read-out: Percent Control
[29] = target: panel of 468 diverse kinases (Plasmodium falciparum, UniProt P62344); details: read-out: Percent Control
Sequence of panel of 468 diverse kinases (Plasmodium falciparum, UniProt P62344) (P62344 2-524 limits assumed): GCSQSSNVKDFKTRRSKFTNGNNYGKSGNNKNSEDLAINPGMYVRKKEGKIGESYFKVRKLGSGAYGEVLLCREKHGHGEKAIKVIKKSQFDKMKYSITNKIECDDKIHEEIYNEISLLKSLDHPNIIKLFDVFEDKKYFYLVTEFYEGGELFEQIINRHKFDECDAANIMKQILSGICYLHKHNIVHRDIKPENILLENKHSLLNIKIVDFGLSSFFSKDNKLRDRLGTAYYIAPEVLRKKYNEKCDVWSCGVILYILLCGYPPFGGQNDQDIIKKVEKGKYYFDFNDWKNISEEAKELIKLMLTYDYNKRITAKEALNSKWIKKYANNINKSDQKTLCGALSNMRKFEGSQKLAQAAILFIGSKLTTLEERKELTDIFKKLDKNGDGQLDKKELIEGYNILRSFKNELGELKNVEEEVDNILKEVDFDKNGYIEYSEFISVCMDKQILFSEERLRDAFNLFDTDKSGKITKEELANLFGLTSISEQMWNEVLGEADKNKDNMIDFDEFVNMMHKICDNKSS

[30] = target: panel of 468 diverse kinases (Homo sapiens, UniProt P42336, H1047Y); details: PIK3CA(H1047Y); 1000 nM; read-out: Percent Control
[31] = target: panel of 468 diverse kinases (Homo sapiens, UniProt Q15831); details: LKB1; 1000 nM; read-out: Percent Control

For `COc1cc2nc(NC3CC3)nc(NC3CCN(C(C)C)CC3)c2cc1OC` [Formula IV], the remaining activity at 1 µM [1] was 95%, the remaining activity at 1 µM [2] was 96% and the remaining activity at 1 µM [3] was 83%. It also gave a remaining activity at 1 µM [4] of 80%, a remaining activity at 1 µM [5] of 67% and a remaining activity at 1 µM [6] of 82%. It also gave a remaining activity at 1 µM [7] of 54%, a remaining activity at 1 µM [8] of 97% and a remaining activity at 1 µM [9] of 50%. The remaining activity at 1 µM [10] was 81%, the remaining activity at 1 µM [11] was 91% and the remaining activity at 1 µM [12] was 96%. For the same compound, the remaining activity at 1 µM [13] was 96%, the remaining activity at 1 µM [14] was 93% and the remaining activity at 1 µM [15] was 100%. For the same compound, the remaining activity at 1 µM [16] was 84%, the remaining activity at 1 µM [17] was 100% and the remaining activity at 1 µM [18] was 88%. For the same compound, the remaining activity at 1 µM [19] was 100%, the remaining activity at 1 µM [20] was 93% and the “Percent Control” value [21] was 98% and 49% and 80% and 92% and 56% and 57%. The “kinase selectivity using KINOMEscan” value [21] was “extremely high kinase selectivity”, the remaining activity at 1 µM [22] was 100% and the remaining activity at 1 µM [23] was 100%. For the same compound, the remaining activity at 1 µM [24] was 71%, the remaining activity at 1 µM ([25]; RPS6KA4(Kin.Dom.1-N-terminal)) was 90% and the remaining activity at 1 µM ([25]; RPS6KA4(Kin.Dom.2-C-terminal)) was 46%. For the same compound, the remaining activity at 1 µM [26] was 98%, the remaining activity at 1 µM [27] was 59% and the remaining activity at 1 µM [28] was 87%. For the same compound, the remaining activity at 1 µM [29] was 56%, the remaining activity at 1 µM [30] was 91% and the remaining activity at 1 µM [31] was 97%.
